Measured values from PubChem BioAssay AID328 (DTP/NCI, 2004).
Several values for one entry are separate records, joined by “and”; a condition that tells them apart may be missing. Equal entries are not always repeated. Inconclusive results and toxic doses are left out.

System: BDF1 mice, P388 leukemia ip, median survival T/C
Experiment: NCI In Vivo Anticancer Drug Screen. Data for tumor model P388 Leukemia (intraperitoneal) in B6D2F1 (BDF1) mice
Conditions: endpoint: median survival time, higher = longer survival
Procedure, shortened: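 Mice carrying the transplantable tumour receive compound or vehicle. Survival is followed in each arm, and the treated measure is divided by the vehicle measure.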

[1] = dose: 100.0 mg/kg/injection, schedule: Q01DX001 (ip), vehicle: saline with Tween-80
[2] = dose: 200.0 mg/kg/injection, schedule: Q01DX001 (ip), vehicle: saline with Tween-80
[3] = dose: 400.0 mg/kg/injection, schedule: Q01DX001 (ip), vehicle: saline with Tween-80
[4] = dose: 10.0 mg/kg/injection, schedule: Q01DX009 (ip), vehicle: saline with Tween-80

CC(=O)C1(O)Cc2c(O)c3c(c(O)c2C(OC2CC(N)C(O)C(C)O2)C1)C(=O)c1ccccc1C3=O (stereo not given)
T/C (dose: 324.0 micrograms/kg/injection, schedule: Q04DX003 (ip), vehicle: water): 177 % of control
T/C (dose: 540.0 micrograms/kg/injection, schedule: Q04DX003 (ip), vehicle: water): 220 % of control
T/C (dose: 900.0 micrograms/kg/injection, schedule: Q04DX003 (ip), vehicle: water): 116 % of control
T/C (dose: 1500.0 micrograms/kg/injection, schedule: Q04DX003 (ip), vehicle: water): 90 % of control

CCc1n[nH]c(=O)c2c3ccccc3nn12
T/C [1]: 96 % of control
T/C [2]: 105 % of control
T/C [3]: 100 % of control

O=[N+]([O-])c1ccc(S(=O)c2ccc([N+](=O)[O-])c3no[n+]([O-])c23)cc1 (stereo not given)
T/C [4]: 104 % of control
T/C (dose: 20.0 mg/kg/injection, schedule: Q01DX009 (ip), vehicle: saline with Tween-80): 100 % of control
T/C (dose: 40.0 mg/kg/injection, schedule: Q01DX009 (ip), vehicle: saline with Tween-80): 102 % of control

OC(c1cc(C23CC4CC(CC(C4)C2)C3)nc2c(Cl)cc(Cl)cc12)C1CCCCN1 (stereo not given)
T/C (dose: 12.5 mg/kg/injection, schedule: Q01DX009 (ip), vehicle: saline with Tween-80): 88 % of control
T/C (dose: 25.0 mg/kg/injection, schedule: Q01DX009 (ip), vehicle: saline with Tween-80): 90 % of control
T/C (dose: 50.0 mg/kg/injection, schedule: Q01DX009 (ip), vehicle: saline with Tween-80): 89 % of control and 97 % of control

COc1c(O)cc2c(c1OC)-c1ccc(OC)c(=O)cc1[C@@H](NC(C)=O)CC2
T/C (dose: 0.62 mg/kg/injection, schedule: Q01DX009 (ip), vehicle: saline with Tween-80): 114 % of control
T/C (dose: 0.63 mg/kg/injection, schedule: Q01DX009 (ip), vehicle: saline with Tween-80): 159 % of control
T/C (dose: 1.25 mg/kg/injection, schedule: Q01DX009 (ip), vehicle: saline with Tween-80): 210 % of control
T/C (dose: 2.5 mg/kg/injection, schedule: Q01DX009 (ip), vehicle: saline with Tween-80): 236 % of control and 200 % of control
T/C (dose: 5.0 mg/kg/injection, schedule: Q01DX009 (ip), vehicle: saline with Tween-80): 236 % of control and 222 % of control
T/C [4]: 210 % of control

CC12C(=O)C(C)(C(c3ccccc3)=C1c1ccccc1)C1(c3ccccc3)C(c3ccccc3)C21c1ccccc1 (stereo not given)
T/C (dose: 50.0 mg/kg/injection, schedule: Q01DX009 (ip), vehicle: Klucel (hydroxypropylcellulose) (HPC)): 100 % of control
T/C (dose: 100.0 mg/kg/injection, schedule: Q01DX009 (ip), vehicle: Klucel (hydroxypropylcellulose) (HPC)): 100 % of control
T/C (dose: 200.0 mg/kg/injection, schedule: Q01DX009 (ip), vehicle: Klucel (hydroxypropylcellulose) (HPC)): 104 % of control

CC12CCC(C1)C(C)(C)C2NCCCN1C(=O)c2ccc3c4c(ccc(c24)C1=O)C(=O)N(CCCNC1C2(C)CCC(C2)C1(C)C)C3=O (stereo not given)
T/C (dose: 6.25 mg/kg/injection, schedule: Q01DX009 (ip), vehicle: Klucel (hydroxypropylcellulose) (HPC)): 105 % of control
T/C (dose: 12.5 mg/kg/injection, schedule: Q01DX009 (ip), vehicle: Klucel (hydroxypropylcellulose) (HPC)): 100 % of control
T/C (dose: 25.0 mg/kg/injection, schedule: Q01DX009 (ip), vehicle: Klucel (hydroxypropylcellulose) (HPC)): 115 % of control and 116 % of control

NNC(=O)C1CCC(=O)O1 (stereo not given)
T/C (dose: 75.0 mg/kg/injection, schedule: Q01DX009 (ip), vehicle: saline with Tween-80): 98 % of control
T/C (dose: 150.0 mg/kg/injection, schedule: Q01DX009 (ip), vehicle: saline with Tween-80): 91 % of control
T/C (dose: 300.0 mg/kg/injection, schedule: Q01DX009 (ip), vehicle: saline with Tween-80): 100 % of control

COC1=CC(=O)C=C(OC)C1=O
T/C (dose: 2.0 mg/kg/injection, schedule: Q01DX010 (ip), vehicle: saline): 105 % of control
T/C (dose: 4.0 mg/kg/injection, schedule: Q01DX010 (ip), vehicle: saline): 100 % of control
T/C (dose: 8.0 mg/kg/injection, schedule: Q01DX010 (ip), vehicle: saline): 105 % of control

S=c1[nH]ccn2cnnc12
T/C [1]: 88 % of control
T/C [2]: 106 % of control
T/C [3]: 100 % of control

Cc1ccc(S(=O)(=O)N(c2ccccc2)c2ccccc2)cc1
T/C (dose: 87.5 mg/kg/injection, schedule: Q01DX009 (ip), vehicle: saline with Tween-80): 96 % of control
T/C (dose: 175.0 mg/kg/injection, schedule: Q01DX009 (ip), vehicle: saline with Tween-80): 96 % of control
T/C (dose: 350.0 mg/kg/injection, schedule: Q01DX009 (ip), vehicle: saline with Tween-80): 101 % of control

Cc1ncc([N+](=O)[O-])n1CCOc1c(Br)cc(Br)cc1CN(C)C1CCCCC1
T/C (dose: 100.0 mg/kg/injection, schedule: Q04DX003 (ip), vehicle: saline with Tween-80): 100 % of control
T/C (dose: 200.0 mg/kg/injection, schedule: Q04DX003 (ip), vehicle: saline with Tween-80): 105 % of control
T/C (dose: 400.0 mg/kg/injection, schedule: Q04DX003 (ip), vehicle: saline with Tween-80): 115 % of control
